The text below walks through data of ChEMBL document CHEMBL5241075, “Advancement of chimeric hybrid drugs to cure malaria infection: An overview with special emphasis on endoperoxide pharmacophores” (Eur J Med Chem, 2021).

For assay [1], the system named is Plasmodium berghei. Kind of assay: Antiplasmodial activity against Plasmodium berghei infected in mouse assessed as reduction in parasitemia at 6.8 mg/kg in presence of mefloquine relative to control. It is filed as functional. The arrangement: scale not given: the % may be the effect or the level left.
For assay [2], the system named is Plasmodium berghei. Kind of assay: Antiplasmodial activity against Plasmodium berghei infected in mouse assessed as reduction in parasitemia at 13 mg/kg in presence of mefloquine relative to control. Also on record: scale not given: the % may be the effect or the level left. It is filed as functional.
For assay [3], the system named is Plasmodium falciparum. Kind of assay: Antiplasmodial activity against Plasmodium falciparum 3D7. The format is functional, organism-based.
The subject of assay [4] is Plasmodium falciparum. Kind of assay: Antiplasmodial activity against Plasmodium falciparum K1. The format is functional, organism-based. Conditions: Plasmodium falciparum, K1.
The subject of assay [5] is Plasmodium chabaudi. Kind of assay: Antiplasmodial activity against Plasmodium chabaudi infected in mouse assessed as survival rate relative to control. The format is functional.
The subject of assay [6] is Plasmodium yoelii. Kind of assay: Antimalarial activity against Plasmodium yoelii infected in swiss mouse assessed as reduction in parasitemia at 96 mg/kg, po relative to control. The format is functional. Also on record: scale not given: the % may be the effect or the level left.
Assay [7] deals with Plasmodium berghei. Kind of assay: Antimalarial activity against Plasmodium berghei KBG 173 infected in ICR mouse assessed as animal survival at 320 mg/kg/day, po qd administered 3 to 5 days post infection. It is filed as functional, organism-based. To be noted: time 3-5 day.
Assay [8] concerns Plasmodium berghei. Kind of assay: Antimalarial activity against Plasmodium berghei KBG 173 infected in ICR mouse assessed as animal survival at 80 mg/kg/day, po qd administered 3 to 5 days post infection. The format is functional, organism-based. Conditions: time 3-5 day.
For assay [9], the system named is Plasmodium berghei. Kind of assay: Antimalarial activity against Plasmodium berghei KBG 173 infected in ICR mouse assessed as animal survival at 20 mg/kg/day, po qd administered 3 to 5 days post infection. It is filed as functional, organism-based. To be noted: time 3-5 day.
In assay [10] the test system is Plasmodium berghei. Kind of assay: Antimalarial activity against Plasmodium berghei KBG 173 infected in ICR mouse assessed as survival time at 320 mg/kg/day, po qd administered 3 to 5 days post infection. The format is functional. Conditions: time 3-5 day.
Assay [11] concerns Plasmodium berghei. Kind of assay: Antimalarial activity against Plasmodium berghei KBG 173 infected in ICR mouse assessed as survival time at 80 mg/kg/day, po qd administered 3 to 5 days post infection. The format is functional. To be noted: time 3-5 day.
The test system of assay [12] is Plasmodium berghei. Kind of assay: Antimalarial activity against Plasmodium berghei KBG 173 infected in ICR mouse assessed as survival time at 20 mg/kg/day, po qd administered 3 to 5 days post infection. It is filed as functional. To be noted: time 3-5 day.
Assay [13] deals with Plasmodium berghei. Kind of assay: Antiplasmodial activity against Plasmodium berghei N infected in po dosed mouse assessed as reduction in parasitemia. It is filed as functional.
In assay [14] the test system is Plasmodium berghei. Kind of assay: Antiplasmodial activity against Plasmodium berghei N infected in sc dosed mouse assessed as reduction in parasitemia. The format is functional.
In assay [15] the test system is Plasmodium falciparum. Kind of assay: Antiplasmodial activity against Plasmodium falciparum NF54. The format is functional, organism-based.
Assay [16] has as its system Plasmodium falciparum. Kind of assay: Antiplasmodial activity against Plasmodium falciparum W2. It is filed as functional, organism-based.
Assay [17] concerns Plasmodium falciparum. Kind of assay: Antiplasmodial activity against Plasmodium falciparum D6. It is filed as functional, organism-based.
The subject of assay [18] is Plasmodium falciparum. Kind of assay: Selectivity ratio of IC50 for antiplasmodial activity against Plasmodium falciparum W2 to IC50 for antiplasmodial activity against Plasmodium falciparum D6. The format is functional.
In assay [19] the test system is Plasmodium falciparum. Kind of assay: Antiplasmodial activity against Plasmodium falciparum gametocytes assessed as inhibition of gametocyte activation by [3H]hypoxanthine incorporation assay. It is filed as functional, organism-based.
The test system of assay [20] is Plasmodium falciparum. Kind of assay: Antiplasmodial activity against Plasmodium falciparum gametocytes by [3H]hypoxanthine incorporation assay. It is filed as functional, organism-based.
Assay [21] concerns Plasmodium falciparum. Kind of assay: Antiplasmodial activity against Plasmodium falciparum TM91C235. The format is functional, organism-based.
For assay [22], the system named is Plasmodium falciparum. Kind of assay: Antiplasmodial activity against Plasmodium falciparum D10. It is filed as functional, organism-based. To be noted: Plasmodium falciparum, D10.
For assay [23], the system named is Hemozoin. Kind of assay: Inhibition of Beta-hematin in Plasmodium falciparum.
The test system of assay [24] is Plasmodium yoelii nigeriensis. Kind of assay: Antiplasmodial activity against Plasmodium yoelii nigeriensis infected in po dosed mouse assessed as reduction in parasitemia. It is filed as functional.
Assay [25] relates to Plasmodium yoelii nigeriensis. Kind of assay: Antiplasmodial activity against Plasmodium yoelii nigeriensis infected in sc dosed mouse assessed as reduction in parasitemia. It is filed as functional.
Assay [26] deals with Plasmodium falciparum. Kind of assay: Antimalarial activity against chloroquine resistant Plasmodium falciparum FcM29 Cameron. The format is functional, organism-based.
Assay [27] deals with Plasmodium falciparum. Kind of assay: Antimalarial activity against chloroquine sensitive Plasmodium falciparum D6. It is filed as functional, organism-based.
Assay [28] relates to Human immunodeficiency virus. Kind of assay: Antiviral activity against HIV. The format is functional, organism-based. Conditions: Human immunodeficiency virus 1.
In assay [29] the test system is Plasmodium falciparum. Kind of assay: Potency index, ratio of artesunate IC50 to test compound IC50 for antiplasmodial activity against Plasmodium falciparum gametocytes by [3H]hypoxanthine incorporation assay. The format is functional.
For assay [30], the system named is Plasmodium falciparum. Kind of assay: Potency index, ratio of mefloquine IC50 to test compound IC50 for antiplasmodial activity against Plasmodium falciparum gametocytes by [3H]hypoxanthine incorporation assay. It is filed as functional.
Assay [31] has as its system Plasmodium berghei. Kind of assay: Antimalarial activity against Plasmodium berghei infected in mouse assessed as reduction in parasitemia. To be noted: Plasmodium berghei. It is filed as functional.
The mark [32] stands for this setting: read-out: ED50 (the source's name).

≈ marks a conversion by molar mass, not a printed value. Calls of active or inactive are those of the source. The calls are words filed in the database; no cut-off is given here.

Regarding `C[C@@H]1CC[C@H]2[C@@H](C)C(CCC(=O)Nc3ccc(F)cc3)O[C@@H]3O[C@]4(C)CC[C@@H]1[C@]32OO4` (stereo not given in full), the Activity in assay [1] came out at 99%; in assay [2], 99.6%.

`C[C@@H]1CC[C@H]2[C@@H](C)C(CCc3ccc(C(=O)O)cc3)O[C@@H]3O[C@]4(C)CC[C@@H]1[C@]32OO4` (stereo not given in full): the figures for the EC50 in assay [3] (setting [32]) and in assay [4] (setting [32]) were 1.1 ng/mL (≈ 2.64 nM) and 0.6 ng/mL (≈ 1.44 nM), respectively. The Survival in assay [5] came out at 100%.

As for `C=C(c1ccccc1)C1COC2(CCC(NCCCCNc3ccnc4cc(Cl)ccc34)CC2)OO1` (stereo not given), the Activity in [6] was found to be 89%.

As to `Clc1ccc2c(NCCNCC3CCC4(CC3)OOC3(CCCCC3)OO4)ccnc2c1`, the result in [7] and in assay [8] was Active. In addition, the result in [9] was inactive. Moreover, the Time is greater than 31 days in assay [10], 26.4 days in assay [11] and 15.8 days in assay [12].

For the molecule `Cc1ccc(C2O[C@@H]3O[C@]4(C)CC[C@H]5[C@H](C)CC[C@@H]([C@H]2C)[C@@]35OO4)o1` (stereo not given in full), the ED50 in assay [13] worked out at 15.5 mg/kg; in [14], 0.9 mg/kg. Also, the IC50 in [15] was found to be 0.0052 µM.

On to `Cc1cccc(C)c1Nc1nc(OCc2cn(CCNc3ccnc4cc(Cl)ccc34)nn2)nc(N(C)C)n1`, for which the IC50 in assay [16] came to 1.69 µM; in [17] it was 0.98 µM. For the same molecule, the “Ratio IC50” value in [18] is greater than 5.6.

Consider `O[C@@H](c1cc(C(F)(F)F)nc2c(C(F)(F)F)cccc12)[C@H]1CCCCN1` [(S,R)-MEFLOQUINE], for which the IC90 in assay [16] is 0.64 µM; in assay [21] it was 0.264 µM. The figures for the IC50 in assay [19], in [20] and in assay [21] were 5600 µM, 16500 µM and 0.13 µM, respectively.

As to `C=C(c1ccccc1)C1COC2(CCC(NCCCNc3ccnc4cc(Cl)ccc34)CC2)OO1` (stereo not given), in assay [6], the Activity is given as 89%.

As to `C[C@@H]1CC[C@H]2[C@@H](C)C(=O)O[C@@H]3O[C@@]4(C)CC[C@@H]1[C@]32OO4` [ARTEMISININ], the IC50 was 0.0067 µM in [16]; 0.009 µM in [17]; 0.00532 µM in assay [3]; 0.023 µM in assay [22]; 0.66 equiv in [23]; 0.007 µM in assay [26]. For the same molecule, the IC50 in assay [27] is 0.008 µM; in assay [21], 0.013 µM. Moreover, the IC90 in [16] was 0.0115 µM; in assay [17] it was 0.0128 µM; in [21] it was 0.0174 µM. The results for the CD50 in assay [24] and in assay [25] were 75 mg/kg/day and 3 mg/kg/day, respectively. Moreover, the CD90 in assay [24] is greater than 100 mg/kg/day; in assay [25] it was 5 mg/kg/day. Further, the values for the ED50 in assay [24] (Plasmodium yoelii) and in assay [25] (Plasmodium yoelii) were 16 mg/kg/day and 3 mg/kg/day, respectively. The ED90 in assay [24] (Plasmodium yoelii) was 27 mg/kg/day; in [25] (Plasmodium yoelii), 5 mg/kg/day.

In [28], `Cc1cn([C@H]2C[C@H](N=[N+]=[N-])[C@@H](CO[C@H]3OC4O[C@]5(C)CC[C@H]6[C@H](C)CC[C@@H]([C@H]3C)[C@@]46OO5)O2)c(=O)[nH]c1=O` (stereo not given in full) displayed an IC50 of 2.86 µM.

Consider `C[C@H]1[C@@H](OC(=O)CCC(=O)O)O[C@@H]2C[C@@]3(C)CC[C@H]4[C@H](C)CC[C@@H]1[C@@]24OO3.FC(F)(F)c1ccc2c(CC3CCCCN3)c3cccc(C(F)(F)F)c3nc2c1` (stereo not given), for which the Ratio in [29] was 15; in [30], 280. The figures for the IC50 in assay [19] and in assay [20] were 20 µM and 4600 µM, respectively.

`C[C@@H]1CC[C@H]2[C@@H](C)C(CCN3CCN(c4ccc(C(F)(F)F)cc4)CC3)O[C@@H]3O[C@]4(C)CC[C@@H]1[C@]32OO4` (stereo not given in full): the ED50 in assay [31] turned out to be 6 mg/kg. In assay [4], this molecule yielded an IC50 of 0.00619 µM.
